Results on one compound are retold here after patent publication US20260215432A1, “ANTIMICROBIAL CONJUGATED OLIGOELECTROLYTES AND METHODS THEREOF” (National University of Singapore, priority 2023, published 2026).

What all share (format): cell-based
For experiment [1], the system named is A. baumanii (ATCC 17978). Put plainly: MIC, broth microdilution in CA-MHB. Background: Dilution methods test growth across graded concentrations, often in twofold steps.
The test system of experiment [2] is E. coli. K12 (ATCC 10798). Put plainly: MIC, broth microdilution in CA-MHB.
Experiment [3] has as its system A. baumanii (ATCC 17978). Put plainly: Minimum bactericidal concentration (MBC). Conditions: strain AB; unit printed in b207 only. The protocol: (§1) To study the extent to which TPP-COEs can effectively kill bacteria, bacteria cells treated with DM6P at varying concentrations were plated onto Tryptic Soy Agar (TSA) and the minimum bactericidal concentration (MBC), where complete eradication of the inoculum occurred, was determined (Table 5). MBC values ranged from 2 μg mL^−1 towards MRSA to 8 μg mL^−1 towards PAO1 and stayed within a two to four-fold range of the MIC values for all strains tested.
(§2) Bacteria samples treated with DM6P at varying concentrations from a broth microdilution method in a 96-well plate according to the methods for determining the MIC. Colonies were plated on TSB agar plates with 20 μL inoculation and the plates incubated at 37° C. overnight. […] All measurements were performed in triplicate.

Experiment [4] deals with E. coli. K12 (ATCC 10798). Put plainly: Minimum bactericidal concentration (MBC). The following applies: strain EC; unit printed in b207 only. The protocol: as §1, §2
For experiment [5], the system named is E. faecalis OG1RF (ATCC 47077). Put plainly: Minimum bactericidal concentration (MBC). Conditions: strain EF; unit printed in b207 only. As to the method:
as §1, §2

In experiment [6] the test system is K. pneumoniae (ATCC BAA1705). Put plainly: Minimum bactericidal concentration (MBC). Conditions: strain CRKP; unit printed in b207 only. The protocol: as §1, §2
In experiment [7] the test system is Methicillin-resistant S. aureus (ATCC BAA1717). Put plainly: Minimum bactericidal concentration (MBC). Conditions: strain MRSA; unit printed in b207 only. As to the method:
as §1, §2

Experiment [8] has as its system P. aeruginosa (ATCC47085). The experiment can be described thus: Minimum bactericidal concentration (MBC). The following applies: strain PA (PAO1); unit printed in b207 only. The protocol: as §1, §2

As usually defined, the MIC is the smallest concentration in the dilution series that meets the test's criterion for growth inhibition. A lower MIC goes with inhibition by little substance. As usually defined, the MBC is the smallest concentration meeting the test's criterion for killing. A low value points to greater bactericidal potency. For `COc1cc(/C=C/c2ccc(OCCCCCC[P+](c3ccccc3)(c3ccccc3)c3ccccc3)c(OC)c2)ccc1OCCCCCC[P+](c1ccccc1)(c1ccccc1)c1ccccc1.[I-].[I-]` [DM6P], in the experiment on A. baumanii (ATCC 17978) [1] (CA-MHB), the “MIC AB” value amounted to 8 µg/mL. Further, the MIC against A. baumanii (ATCC 17978) [1] (strain AB, Table 5) amounted to 8 µg/mL; in experiment [2] (strain EC, Table 5), 2 µg/mL. Moreover, in experiment [2] (CA-MHB), the “MIC EC” value worked out at 2 µg/mL. The MBC in the experiment on A. baumanii (ATCC 17978) [3] stood at 32 µg/mL; in experiment [4], 2 µg/mL; in experiment [5] it was 4 µg/mL; in experiment [6], 16 µg/mL; in experiment [7], 2 µg/mL; in experiment [8], 8 µg/mL.
